Columns and labels:
[1] = system: mature primary hippocampal and cortical cultures; experiment: Membrane trafficking assay (MTT formazan exocytosis); assay type: cell-based, rat; details: for activity in blocking effects of Abeta oligomers: control compounds;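 as to all read-outs here: mixed neuron and glia cultures from E18 Sprague-Dawley rat embryos, grown 3 weeks in 384-well plates, labeled vesicles quantified by imaging or spectrophotometry as percent of vehicle-treated wells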
[2] = biological target: T1, Abeta 1–42 oligomers (Homo sapiens, UniProt P05067); experiment: Oligomer-specific Abeta ELISA (direct action on oligomers); assay type: biochemical
T1 construct: purchased California Peptide Inc; American Peptide Company; or University of Pittsburgh Peptide Core facility 641-15; 62-0-80; host or cells: chemical synthesis
Description: Determination of oligomeric and monomeric concentrations of Abeta contained in a given Abeta preparation was done according to the method of LeVine. Briefly, total Abeta concentration is measured by two-site ELISA using different capture (6E10 monoclonal antibody, Covance SIG-39320) and detection (4G8- conjugated to biotin, Covance, SIG39240) antibodies and quantifyied with streptavidin-horseradish peroxidase (Millipore catalog number AP308P). Oligomerized Abeta is measured in the same samples by a single-site ELISA in which monoclonal antibodies to the same epitope are used for capture (4G8, Covance SIG-39330) and detection (4G8-biotin). The 4G8-biotin cannot bind to captured monomer because the epitope is blocked by the capture antibody, so only oligomers are detected with this configuration. The streptavidin-horseradish peroxidase therefore reports only oligomeric Abeta which has additional exposed 4G8 epitopes. Monomer concentration is calculated as the difference between total Abeta concentration and oligomer concentration.

T1 sequence (P05067 672-713): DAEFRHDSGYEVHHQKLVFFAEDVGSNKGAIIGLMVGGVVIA

## O[C@H]1[C@H](O)[C@@H](O)[C@H](O)[C@@H](O)[C@@H]1O [scyllo-inositol, reference compound]
[1]
  activity in blocking effects of Abeta oligomers: only memantine was active

## C[C@]12N[C@H](Cc3ccccc31)c1ccccc12 [MK-801, reference compound]
[1]
  activity in blocking effects of Abeta oligomers: only memantine was active

## C[N+](C)(C)CCCCCC[N+](C)(C)C [hexamethonium bromide, reference compound]
[1]
  activity in blocking effects of Abeta oligomers: only memantine was active

## CC12CC3CC(C)(C1)CC(N)(C3)C2 [memantine, reference compound]
[1]; control compound vs Abeta oligomers
  doses weakly blocking oligomer effects: above 100 µM

## Oc1cccc2cccnc12 [8-OH quinoline, reference compound]
[2]
  dissociation of preformed oligomers: dissociated

## semi-synthetic oligomers: Abeta 1–42 monomers incubated in size excluded rat brain homogenate, immunoprecipitated with 6E10 [reference compound]
[1]; Abeta preparation dosed alone
  Treatment duration for maximum response: 1 h
[1]; preparation dosed alone, read-out: EC50 of Abeta preparation
  EC50: 5.9 nM
